In article PMC12880750, “Mechanistic insights and in vivo HIV suppression by the BRD4-targeting small molecule ZL0580” (PLOS Pathogens, 2026):

Key:
[1] = test system: BRD4-knockout (KO) J-Lat cells; assay: RT-qPCR of differentially expressed genes, BRD4-KO J-Lat cells; assay type: cell-based, human; settings: same treatments
Experimental: To validate the RNA-Seq results, RT-qPCR analysis was performed on a subset of differentially expressed genes (DEGs) (Fig 3E). Eight representative DEGs were selected based on statistical significance (adjusted p values) and their involvement in key pathways identified by GSEA, including lipid metabolism/cholesterol biosynthesis (HMGCS1, SQLE, DHCR7) and cytokine signaling (ITK and DUSP8). Relative gene expression levels were normalized to the housekeeping gene GAPDH. […] As an additional control, RT-qPCR was also performed on RNA isolated from BRD4-knockout (KO) J-Lat cells that received the same treatments. The generation and characterization of BRD4-KO J-Lat cells were described previously.
RT-qPCR was performed as previously reported.

[2] = test system: CDK9 binding to HIV 5′-LTR in J-Lat cells (10.6); assay: ChIP-qPCR of CDK9 binding to HIV 5'-LTR; assay type: cell-based, human; settings: PMA 50ng/ml, 24 hours
Experimental: Twenty-four hours later, cells were subjected to ChIP-qPCR using an anti-CDK9 antibody, with isotype IgG as the ChIP control.
24 hours after treatments, ChIP-qPCR was performed using a CDK9-specific antibody to examine the recruitment of CDK9 to HIV 5’-LTR in J-Lat cells. ChIP using an isotype IgG was included for normalization. Data were shown as fold change in the precipitated HIV 5′ LTR by the CDK9 antibody relative to the control isotype IgG for each treatment condition.
ChIP was performed using a method reported previously [41]. About 15 × 10⁶ J-Lat cells were treated according to the conditions described in the Main Text. After treatment, cells were collected, washed once with PBS, and resuspended in 10 mL PBS. To cross-link protein–DNA complexes, cells were fixed with 37% formaldehyde, and the reaction was quenched by adding 10Xglycine and incubating for 5 min at room temperature. The cells were then pelleted by centrifugation, and the pellets were incubated in ice-cold lysis buffer for 30 min. […] After extensive washing with the appropriate ChIP buffers, immune complexes were eluted, reverse cross-linked, and treated with proteinase K. DNA was purified using phenol–chloroform extraction and subsequently analyzed by qPCR. […] ChIP-qPCR results were quantified using the fold-enrichment method as previously reported [41].

SMILES	Contrasting regulatory effects on representative DEGs in the absence of BRD4 [1]	Increase in CDK9 occupancy at the HIV promoter relative to NC [2]
Cc1sc2c(c1C)C(c1ccc(Cl)cc1)=N[C@@H](CC(=O)OC(C)(C)C)c1nnc(C)n1-2 [JQ1, reference compound]	largely abolished	
CCCCCCCCCCCCCC(=O)O[C@@H]1[C@@H](C)[C@@]2(O)[C@@H](C=C(CO)C[C@]3(O)C(=O)C(C)=C[C@@H]23)[C@@H]2C(C)(C)[C@]12OC(C)=O [PMA, reference compound]		~ 19 fold
